Results published in paper doi:10.1101/2025.09.28.679030v1 (biorxiv, 2025).

Target: IGP1 (IGP1/CORK1) ectodomain (Arabidopsis thaliana, UniProt F4I3K3)
Assay: ITC
Type: binding
Conditions: purified ectodomain; ligand in LRR domain pocket, three subsites; N=1

## OC[C@H]1O[C@@H](O[C@H]2[C@H](O)[C@@H](O)[C@H](O[C@H]3[C@H](O)[C@@H](O)C(O)O[C@@H]3CO)O[C@@H]2CO)[C@H](O)[C@@H](O)[C@@H]1O (stereo partly shown) [CEL3, cellotriose]
  Kd: ~1000 nM
